Laboratory results taken from ChEMBL document CHEMBL1201862, “PubChem BioAssay data set” (2004).
Each block holds one molecule with its values, some of them ahead of it. Active and inactive are the calls of the source.

Tests used:
[1] = target: T1, E3 ubiquitin-protein ligase XIAP (Homo sapiens, UniProt P98170); experiment: XIAP antagonists, biochemical, IAP family, fluorescence polarization (AID 1018); assay type: functional
[2] = target: T1, E3 ubiquitin-protein ligase XIAP; experiment: Counter Screen using XIAP-Bir3 for Chemical Antagonists of Bir1/2 domains of IAP-family anti-apoptotic proteins. [Related pubchem assays (depositor defined):AID1018, AID1449, AID1514, AID1638, AID1749, AID1750, AID488957, AID488963]
[3] = target: T2, Coagulation factor XII (Homo sapiens, UniProt P00748); experiment: Factor XIIa Dose Response Confirmation from Single Well HTS. [Related pubchem assays (depositor defined):AID701]; assay type: functional
T2 sequence (P00748 whole entry): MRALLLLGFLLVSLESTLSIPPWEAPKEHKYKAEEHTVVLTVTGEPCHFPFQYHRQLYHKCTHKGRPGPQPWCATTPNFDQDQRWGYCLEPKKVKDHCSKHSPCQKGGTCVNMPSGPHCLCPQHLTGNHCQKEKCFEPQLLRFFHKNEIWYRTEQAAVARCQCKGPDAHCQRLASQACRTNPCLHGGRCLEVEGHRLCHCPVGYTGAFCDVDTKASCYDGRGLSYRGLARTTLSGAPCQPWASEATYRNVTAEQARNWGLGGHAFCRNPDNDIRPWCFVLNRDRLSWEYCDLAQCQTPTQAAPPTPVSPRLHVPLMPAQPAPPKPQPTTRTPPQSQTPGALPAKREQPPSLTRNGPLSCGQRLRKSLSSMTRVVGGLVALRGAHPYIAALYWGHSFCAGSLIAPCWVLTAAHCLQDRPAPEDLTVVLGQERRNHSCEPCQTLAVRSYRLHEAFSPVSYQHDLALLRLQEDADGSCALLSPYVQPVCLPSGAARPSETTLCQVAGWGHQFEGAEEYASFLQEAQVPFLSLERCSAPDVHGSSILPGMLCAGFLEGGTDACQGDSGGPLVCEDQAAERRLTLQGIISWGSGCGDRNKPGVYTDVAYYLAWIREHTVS

[4] = target: Tyrosine-protein phosphatase non-receptor type 12 (Homo sapiens, UniProt Q05209); experiment: SAR Selectivity Analysis of small molecule inhibitors of PEST using pCAP in a fluorescence assay. [Related pubchem assays (depositor defined):AID1779, AID1784, AID2135]; assay type: functional
Chain of Tyrosine-protein phosphatase non-receptor type 12 (Q05209 whole entry): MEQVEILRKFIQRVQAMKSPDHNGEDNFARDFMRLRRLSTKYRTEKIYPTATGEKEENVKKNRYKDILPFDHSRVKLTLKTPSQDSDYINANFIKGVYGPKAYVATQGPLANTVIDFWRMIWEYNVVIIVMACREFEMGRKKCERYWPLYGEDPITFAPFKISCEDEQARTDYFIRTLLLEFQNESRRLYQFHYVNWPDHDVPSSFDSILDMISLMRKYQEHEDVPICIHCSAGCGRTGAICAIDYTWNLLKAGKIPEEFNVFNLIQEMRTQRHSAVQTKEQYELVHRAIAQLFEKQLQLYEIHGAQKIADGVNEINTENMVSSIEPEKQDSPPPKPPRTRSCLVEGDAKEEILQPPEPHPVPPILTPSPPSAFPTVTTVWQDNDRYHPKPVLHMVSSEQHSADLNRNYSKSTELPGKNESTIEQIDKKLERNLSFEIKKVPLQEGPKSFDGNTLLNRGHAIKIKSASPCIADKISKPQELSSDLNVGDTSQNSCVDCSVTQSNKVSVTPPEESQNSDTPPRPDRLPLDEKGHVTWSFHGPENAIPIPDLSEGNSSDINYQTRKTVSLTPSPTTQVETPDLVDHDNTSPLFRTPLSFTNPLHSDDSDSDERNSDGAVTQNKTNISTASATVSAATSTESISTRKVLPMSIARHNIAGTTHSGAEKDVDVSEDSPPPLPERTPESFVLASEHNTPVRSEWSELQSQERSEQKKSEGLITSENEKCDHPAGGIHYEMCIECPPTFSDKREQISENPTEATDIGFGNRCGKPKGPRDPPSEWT

[5] = target: T3, Tyrosine-protein phosphatase non-receptor type 22 (Homo sapiens, UniProt Q9Y2R2); experiment: SAR LYP1 Fluorescent Assay using OMFP substrate for In Vitro dose response studies - Set 3. [Related pubchem assays (depositor defined):AID1779, AID1784, AID2140, AID2686]; assay type: functional
T3 sequence (Q9Y2R2 whole entry): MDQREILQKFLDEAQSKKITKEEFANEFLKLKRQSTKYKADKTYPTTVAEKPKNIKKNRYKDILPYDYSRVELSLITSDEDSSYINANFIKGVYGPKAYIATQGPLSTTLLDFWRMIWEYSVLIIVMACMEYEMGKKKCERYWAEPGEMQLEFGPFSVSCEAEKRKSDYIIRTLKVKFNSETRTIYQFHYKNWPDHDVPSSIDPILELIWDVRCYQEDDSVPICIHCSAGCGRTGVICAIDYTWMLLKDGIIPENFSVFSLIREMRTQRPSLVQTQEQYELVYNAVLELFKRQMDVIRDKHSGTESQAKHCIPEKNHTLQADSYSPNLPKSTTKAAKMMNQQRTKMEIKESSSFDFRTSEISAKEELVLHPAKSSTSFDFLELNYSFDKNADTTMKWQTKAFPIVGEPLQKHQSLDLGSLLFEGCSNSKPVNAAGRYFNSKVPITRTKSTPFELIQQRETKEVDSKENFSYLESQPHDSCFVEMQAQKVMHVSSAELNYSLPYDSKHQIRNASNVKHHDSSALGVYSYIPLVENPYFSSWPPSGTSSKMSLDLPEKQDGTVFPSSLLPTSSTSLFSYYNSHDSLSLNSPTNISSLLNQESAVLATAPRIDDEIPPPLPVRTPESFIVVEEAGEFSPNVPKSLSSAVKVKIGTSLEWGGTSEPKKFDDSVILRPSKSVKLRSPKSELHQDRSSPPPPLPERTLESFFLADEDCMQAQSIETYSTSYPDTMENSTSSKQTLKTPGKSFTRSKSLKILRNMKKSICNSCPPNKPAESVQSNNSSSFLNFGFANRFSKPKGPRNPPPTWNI

[6] = target: T3, Tyrosine-protein phosphatase non-receptor type 22; experiment: LYP (PTPN22) phosphatase inhibitor potency, SAR follow-up, biochemical, pCAP fluorogenic substrate, fluorescence, set 3 (AID 449727); assay type: functional
[7] = target: T3, Tyrosine-protein phosphatase non-receptor type 22; experiment: SAR LYP1 Fluorescent Assay using pCAP substrate for In Vitro dose response studies - Set 2. [Related pubchem assays (depositor defined):AID1779, AID1784, AID2135, AID449727]; assay type: functional
[8] = target: T4, Tyrosine-protein phosphatase non-receptor type 7 (Homo sapiens, UniProt P35236); experiment: HePTP (PTPN7) phosphatase inhibitor potency, SAR follow-up, biochemical, set 2 (AID 449736); assay type: functional
T4 sequence (P35236 whole entry): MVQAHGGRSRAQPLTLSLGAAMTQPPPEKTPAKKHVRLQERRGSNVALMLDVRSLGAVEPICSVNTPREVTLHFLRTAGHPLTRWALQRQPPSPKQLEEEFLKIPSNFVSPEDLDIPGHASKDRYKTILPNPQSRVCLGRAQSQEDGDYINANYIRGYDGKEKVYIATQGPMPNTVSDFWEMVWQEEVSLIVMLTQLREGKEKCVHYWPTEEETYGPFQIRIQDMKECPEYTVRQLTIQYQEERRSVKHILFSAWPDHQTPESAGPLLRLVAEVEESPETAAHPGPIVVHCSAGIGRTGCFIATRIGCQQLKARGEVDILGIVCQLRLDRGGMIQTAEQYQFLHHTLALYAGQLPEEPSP

[9] = target: T3, Tyrosine-protein phosphatase non-receptor type 22; experiment: SAR LYP1 Fluorescent Assay using OMFP substrate for In Vitro dose response studies - Set 2. [Related pubchem assays (depositor defined):AID1779, AID1784, AID2140, AID449726, AID488869]; assay type: functional
[10] = system: Streptococcus sp. 'group A'; experiment: growth inhibition of control SK(-) GAS strain, dose response, counter-screen for streptokinase expression inhibitor project, luminescence, kanamycin, BacTiterGlo, confirmation (AID 1900); assay type: functional, organism-based
[11] = target: T5, CAAX prenyl protease 2 (Homo sapiens, UniProt Q9Y256); experiment: human Rce1 protease inhibitors, dose response, biochemical, yeast membranes, quenched-peptide fluorescence, cherry-pick (AID 588849)
T5 sequence (Q9Y256 whole entry): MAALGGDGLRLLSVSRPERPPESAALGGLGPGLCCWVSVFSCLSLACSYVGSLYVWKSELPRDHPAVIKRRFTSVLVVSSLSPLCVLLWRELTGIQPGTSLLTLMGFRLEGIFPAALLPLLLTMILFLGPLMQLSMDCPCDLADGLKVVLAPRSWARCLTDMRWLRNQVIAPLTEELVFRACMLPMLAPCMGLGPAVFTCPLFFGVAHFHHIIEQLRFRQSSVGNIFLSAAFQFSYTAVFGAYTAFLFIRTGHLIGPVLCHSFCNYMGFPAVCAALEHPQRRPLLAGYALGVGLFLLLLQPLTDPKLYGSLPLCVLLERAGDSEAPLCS

[12] = mammalian cell cytotoxicity, dose response, cytotoxicity control, plate reader, cherry-pick samples (AID 504397); assay type: functional, cell-based
[13] = system: Streptococcus; experiment: Group A Streptococcus viability loss, dose response, counter-screen for streptokinase expression inhibitor project, luminescence, BacTiterGlo (AID 1915); assay type: functional, organism-based;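 further: potency for reduction of bacterial viability or growth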
[14] = inhibitors of intracellular T. cruzi replication, confirmation, NIH3T3 host cells, beta-gal luminescence (AID 2044); assay type: functional, cell-based;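 further: intracellular parasites grown in NIH/3T3 mouse fibroblasts as host cells; luminescent beta-galactosidase reporter signal from transgenic T. cruzi replicating inside host cells; inhibitors lower the luminescence signal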
[15] = cytotoxicity toward NIH3T3 fibroblasts, dose response, counter-screen, cell-based, ATP luminescence, mouse fibroblasts (AID 2010); assay type: functional;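 further: cells exposed to compound for about 90 hours before reading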
[16] = target: Troponin, cardiac muscle (Homo sapiens, UniProt P19429+P45379+P63316); experiment: Fluorescence-based biochemical high throughput dose response assay for activators of the calcium sensitivity of cardiac Regulated Thin Filaments (RTF). [Related pubchem assays (depositor defined):AID493008, AID493018, AID504382, AID504383]; assay type: protein-complex assay

T1 sequence (P98170 whole entry): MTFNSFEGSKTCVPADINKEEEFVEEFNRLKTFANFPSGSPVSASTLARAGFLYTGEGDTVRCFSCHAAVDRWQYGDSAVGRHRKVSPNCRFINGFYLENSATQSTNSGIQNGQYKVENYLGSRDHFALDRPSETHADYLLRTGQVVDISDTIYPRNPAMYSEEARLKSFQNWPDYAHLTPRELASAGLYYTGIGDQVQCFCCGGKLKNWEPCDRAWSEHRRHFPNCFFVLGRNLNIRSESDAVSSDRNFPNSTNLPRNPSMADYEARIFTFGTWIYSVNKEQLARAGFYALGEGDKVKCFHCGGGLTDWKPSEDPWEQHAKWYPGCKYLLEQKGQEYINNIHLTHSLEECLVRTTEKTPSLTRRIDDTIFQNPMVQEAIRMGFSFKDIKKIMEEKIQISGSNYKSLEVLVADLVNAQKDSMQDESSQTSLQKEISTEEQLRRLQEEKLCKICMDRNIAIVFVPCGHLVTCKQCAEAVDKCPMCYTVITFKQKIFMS

SMILES: CC(=O)NCCc1nc2ccccc2n1CCc1ccccc1
IC50 [1]: > 100 µM (not active) | IC50 [2]: > 100 µM (inactive)

SMILES: CCOc1cc(C=NNC(=O)c2ccc(-c3csc(Nc4ccc(C)cc4)n3)cc2)ccc1OCC(=O)O
IC50 [4]: 1 µM (active) | IC50 [5]: 1.04 µM (active) | IC50 [6]: 4.27 µM (active) | IC50 [7]: 4.42 µM (active) | IC50 [8]: 1.91 µM (active) | IC50 [9]: 5.13 µM (active)

SMILES: C/C(Cl)=C\Cn1c(O)c(/N=N/C(=N)S)c2cc(Br)ccc21
EC50 [10]: 1.26 µM (active) | AC50 [11]: 12.6 µM (active) | AC50 [12]: 281 µM (active) | EC50 [13]: 3.93 µM (active) | EC50 [14]: 1.32 µM (active) | EC50 [15]: > 30 µM (not active)

The remaining lines, values ahead:

IC50 [3]: > 50 µM (inactive)
SMILES: CC(C)C(C)(C#N)NC(=O)CSc1nnc(C(F)(F)F)n1C (stereo unspecified)

EC50 [16]: > 71.5 µM (inactive)
SMILES: Cc1ccnc2nc(C(=O)OCC(=O)NCCc3ccccc3)nn12
